Values quoted from earlier work in PMC6167001 (ACS Omega, 2018).

How the values were obtained:
[1] = test system: HIV-1 mutants bearing L76V; details: inclusion of L76V in mutants bearing three other resistance mutations
[2] = molecular target: PRL76V (HIV-1 protease with mutation L76V)

## Cc1cccc(C)c1OCC(=O)N[C@@H](Cc1ccccc1)[C@@H](O)C[C@H](Cc1ccccc1)NC(=O)[C@H](C(C)C)N1CCCNC1=O [Compound 2, lopinavir]
[1]
  increase in resistance associated with L76V: eightfold

## CC(C)(C)NC(=O)[C@@H]1C[C@@H]2CCCC[C@@H]2CN1C[C@@H](O)[C@H](Cc1ccccc1)NC(=O)[C@H](CC(N)=O)NC(=O)c1ccc2ccccc2n1 [Compound 6, saquinavir]
[1]
  increase in susceptibility associated with L76V: eightfold

## COc1ccc(S(=O)(=O)N(C[C@H]2CCC(=O)N2)C[C@@H](O)[C@H](Cc2ccccc2)NC(=O)O[C@@H]2C[C@@H]3CCO[C@@H]3C2)cc1 [GRL-02031]
[2]
  increase in inhibition constant (Ki) for PRL76V in comparison to PRWT: twofold
